Data taken from patent publication US4303637A, “Medication indicated for ocular hypertension” (priority 1980, dated 1981).

Columns and labels:
[1] = Osmotic pressure of the solute (vapor pressure osmometer); format: physicochemical
Text: The osmotic pressure, ATM, of the solute can be measured in a commercially available osmometer that measures the vapor pressure difference between pure water and a solution containing a solute to be analyzed, and according to standard thermodynamic principles, the vapor pressure ratio is converted into an osmotic pressure. An osmometer that can be used for the present measurements is the Model 302B, Vapor Pressure Osmometer, manufactured by the Hewlett Packark Company, Avondale, Pennsylvania.
(§1) The product is removed from the internal mixer and passed through the cooled rolls of a 3×8 inch roller mill to form a 0.8 mm thick film, with portions of the film compression molded between heated plattens of a hydraulic press to form 0.4 mm thick film. The film is cooled, and elliptical ocular shaped devices are punched from the dry film.

[2] = Solubility in distilled water; format: physicochemical; conditions: distilled water at 25° C
Text: as §1

[3] = test system: intraocular pressure associated with glaucoma; conditions: liquid eyedrops; cited from earlier work

Question: For `COCCc1ccc(OCC(O)CNC(C)C)cc1.O=C(O)C(O)C(O)C(=O)O` (racemic) [(±)-1-[4-(2-methoxyethyl)-phenoxy]-3-[(1-methylethyl)amino]-2-propanol tartrate], which osmotic pressure [1] is on record?
Answer: The osmotic pressure was 210 atm.

Question: What about the solubility [2] of the same compound?
Answer: Its solubility is 860 mg/mL.

Question: Which “lowering of intraocular pressure” value [3] does the source give for `CC(C)(C)NC[C@H](O)COc1nsnc1N1CCOCC1` [timolol] here?
Answer: Its value is “lowering intraocular pressure associated with glaucoma”.
